Assay results: ChEMBL document CHEMBL1145145, “Design and synthesis of o-trifluoromethylbiphenyl substituted 2-amino-nicotinonitriles as inhibitors of farnesyltransferase” (Bioorg Med Chem Lett, 2005)

Legend:
[1] = target: Protein farnesyltransferase (Bos taurus, UniProt P29702+P49355); assay: Inhibition of Bovine farnesyl transferase; format: protein-complex assay
[2] = target: Geranylgeranyl transferase type I (Bos taurus, UniProt P29702+Q5EAD5); assay: Inhibition of Bovine geranylgeranyl transferase; format: protein-complex assay
[3] = target: T1, Protein farnesyltransferase (Mus musculus, UniProt Q61239+Q8K2I1); assay: Effective concentration against H-ras processing in transformed NIH3T3 cells; format: functional, cell-based
[4] = target: T1, Protein farnesyltransferase; assay: Inhibition of H-ras processing in transformed NIH3T3 cells
Bos taurus = organism: Bos taurus; assay: Selectivity for Bovine farnesyl transferase over geranylgeranyl transferase
[5] = target: Protein farnesyltransferase (Bos taurus) (UniProt P29702+P49355); assay: Percentage inhibition of Bovine farnesyl transferase at 100 nM; format: protein-complex assay
[6] = target: Protein farnesyltransferase (Homo sapiens, UniProt P49354+P49356); assay: Inhibition of Farnesyl transferase inhibitor (ABT-839); format: protein-complex assay
[7] = target: T1, Protein farnesyltransferase; assay: Effective concentration against H-ras processing in NIH 3T3 cells; format: functional, cell-based, NIH3T3

SMILES	IC50 [1] [µM]	IC50 [2] [µM]	EC50 [3] [µM]	also measured
Cc1ccccc1-c1cc(C(OCc2ccccc2F)c2cncn2C)ccc1C#N (stereo not drawn)	0.07			
Cn1cncc1C(OCc1ccc(C#N)c(N2CCC[C@@H]2CO)n1)c1ccc(C#N)c(-c2ccccc2C(F)(F)F)c1 (stereo partly drawn)	0.002	0.92	0.17	
Cn1cncc1C(OCc1ccc(C#N)c(N2CCN(CCO)CC2)n1)c1ccc(C#N)c(-c2ccccc2C(F)(F)F)c1 (stereo not drawn)	0.0013	2	0.03	
Cc1ccccc1-c1cc(C(OCc2ccc(C#N)cc2)c2cncn2C)ccc1C#N (stereo in doubt; 4q)	0.004			
Cc1ccccc1-c1cc(C(OCc2ccc(F)cc2)c2cncn2C)ccc1C#N (stereo not drawn)	0.032			
Cc1ccccc1-c1cc(C(OCc2ccc(Cl)c(Cl)c2)c2cncn2C)ccc1C#N (stereo not drawn)	0.027			
Cn1cncc1C(OCc1ccc(C#N)c(NCc2cccc(F)c2)n1)c1ccc(C#N)c(-c2ccccc2C(F)(F)F)c1 (stereo not drawn)	0.01	0.75		
Cn1cncc1C(OCc1ccc(C#N)c(N2CCC(O)C2)n1)c1ccc(C#N)c(-c2ccccc2C(F)(F)F)c1 (stereo not drawn)	0.0035	0.97	0.12	
Cc1ccccc1-c1cc(C(OCc2ccccc2Br)c2cncn2C)ccc1C#N (stereo not drawn)				inhibition [1]: 65%
Cn1cncc1C(OCc1ccc(C#N)c(N2CCOCC2)n1)c1ccc(C#N)c(-c2ccccc2C(F)(F)F)c1 (stereo not drawn)	0.0013	1.2	0.089	
Cc1ccccc1-c1cc(C(OCc2cccc3ccccc23)c2cncn2C)ccc1C#N (stereo not drawn)	0.017			
Cn1cncc1C(OCc1ccc(C#N)cc1)c1ccc(C#N)c(-c2ccccc2CO)c1 (stereo not drawn)	0.0055	0.48		inhibition [4]: 89%
Cc1cccc(COC(c2ccc(C#N)c(-c3ccccc3C)c2)c2cncn2C)c1 (stereo not drawn)	0.061			
Cc1ccccc1COC(c1ccc(C#N)c(-c2ccccc2C)c1)c1cncn1C (stereo not drawn)	0.054			
Cc1ccccc1-c1cc(C(OCc2cccc(Br)c2)c2cncn2C)ccc1C#N (stereo not drawn)	0.013			
Cc1ccccc1-c1cc(C(OCc2csc(-c3ccc(Cl)cc3)n2)c2cncn2C)ccc1C#N (stereo not drawn)	0.029			
Cc1ccccc1-c1cc(C(OCc2cccc(F)c2)c2cncn2C)ccc1C#N (stereo not drawn)	0.038			
Cc1ccccc1-c1cc(C(OCc2cccc(I)c2)c2cncn2C)ccc1C#N (stereo not drawn)	0.02			
CC(=O)NC1CCN(c2nc(COC(c3ccc(C#N)c(-c4ccccc4C(F)(F)F)c3)c3cncn3C)ccc2C#N)C1 (stereo not drawn)	0.0017	1.6	0.33	
Cn1cncc1C(OCc1ccc(C(F)(F)F)c(F)c1)c1ccc(C#N)c(-c2ccccc2C(F)(F)F)c1 (stereo not drawn)	0.0061	0.16	> 1	
Cc1ccccc1-c1cc(C(OCc2cccc3cccnc23)c2cncn2C)ccc1C#N (stereo not drawn)	0.059			
Cc1ccccc1-c1cc(C(OCc2ccc(Cl)cc2)c2cncn2C)ccc1C#N (stereo not drawn)	0.011			
Cc1ccccc1-c1cc(C(OCc2ccccc2[N+](=O)[O-])c2cncn2C)ccc1C#N (stereo not drawn)	0.033			
Cc1ccccc1-c1cc(C(OCc2ccc([N+](=O)[O-])cc2)c2cncn2C)ccc1C#N (stereo not drawn)	0.0075			

SMILES	IC50 [1] [µM]	IC50 [2] [µM]	EC50 [3] [µM]	also measured
Cn1cncc1C(OCc1ccc(C#N)cc1)c1ccc(C#N)c(-c2ccccc2C(F)(F)F)c1 (stereo not drawn)		0.31	0.085	
Cn1cncc1C(OCc1ccc(C#N)c(N2CCC(CO)CC2)n1)c1ccc(C#N)c(-c2ccccc2C(F)(F)F)c1 (stereo not drawn)	0.0018	1.4	0.011	
Cc1ccccc1-c1cc(C(OCc2cc(Cl)nc(Cl)c2)c2cncn2C)ccc1C#N (stereo not drawn)	0.013			
Cn1cncc1C(OCc1ccc(C#N)cc1)c1ccc(C#N)c(-c2cccc(Cl)c2Cl)c1 (stereo not drawn)	0.0015	0.085	0.24	
Cc1ccccc1-c1cc(C(OCc2cccc(OC(F)(F)F)c2)c2cncn2C)ccc1C#N (stereo not drawn)	0.0083			
Cc1ccccc1-c1cc(C(OCc2ccc(S(C)(=O)=O)cc2)c2cncn2C)ccc1C#N (stereo not drawn)	0.038			
Cc1ccc(COC(c2ccc(C#N)c(-c3ccccc3C)c2)c2cncn2C)cc1 (stereo not drawn)	0.054			
Cc1ccccc1-c1cc(C(OCc2ccc(Br)cc2)c2cncn2C)ccc1C#N (stereo not drawn)	0.012			
Cc1ccccc1-c1cc(C(OCc2ccc(I)cc2)c2cncn2C)ccc1C#N (stereo not drawn)	0.013			
COc1ccc(COC(c2ccc(C#N)c(-c3ccccc3C)c2)c2cncn2C)cc1 (stereo not drawn)	0.059			
Cc1ccccc1-c1cc(C(OCc2c(Cl)cccc2Cl)c2cncn2C)ccc1C#N (stereo not drawn)	0.081			
COC(=O)c1ccc(COC(c2ccc(C#N)c(-c3ccccc3C(F)(F)F)c2)c2cncn2C)nc1 (stereo not drawn)	0.009	3.9		inhibition [4]: 83%
Cn1cncc1C(OCc1ccc(C#N)c(N2CCCC(O)C2)n1)c1ccc(C#N)c(-c2ccccc2C(F)(F)F)c1 (stereo not drawn)	0.0013	1.4	0.013	
Cc1ccccc1-c1cc(C(OCc2ccc(OC(F)(F)F)cc2)c2cncn2C)ccc1C#N (stereo not drawn)	0.016			
Cc1ccccc1-c1cc(C(OCc2ccc(C(F)(F)F)cc2)c2cncn2C)ccc1C#N (stereo not drawn)	0.012			
Cc1cccc(-c2cc(C(OCc3ccc(C#N)cc3)c3cncn3C)ccc2C#N)c1C (stereo not drawn)	0.0021	0.13	> 1	
Cc1ccccc1-c1cc(C(OCc2ccc(C#N)cc2)c2cncn2C)ccc1C#N (stereo in doubt; 10a)	0.0048	0.18	0.42	
CC(=O)N1CCN(c2nc(COC(c3ccc(C#N)c(-c4ccccc4C(F)(F)F)c3)c3cncn3C)ccc2C#N)CC1 (stereo not drawn)	0.0026	1.8	0.13	
Cn1cncc1C(OCc1ccc(C#N)cc1)c1ccc(C#N)c(-c2cc3ccccc3s2)c1 (stereo not drawn)	0.16			
Cc1ccccc1-c1cc(C(OCc2ccccc2C#N)c2cncn2C)ccc1C#N (stereo not drawn)	0.062			
CN1CCN(c2nc(COC(c3ccc(C#N)c(-c4ccccc4C(F)(F)F)c3)c3cncn3C)ccc2C#N)CC1 (stereo not drawn)	0.0012	2.6	0.053	
CCCCN(CCC1CCCCC1)Cc1ccc(C(=O)N[C@@H](CCSC)C(=O)O)c(-c2ccccc2C)c1				Selectivity (Bos taurus): 75000
Cc1ccccc1-c1cc(C(OCc2ccc(C(C)C)cc2)c2cncn2C)ccc1C#N (stereo not drawn)	0.051			
Cn1cncc1C(OCc1ccc(C#N)cc1)c1ccc(C#N)c(-c2cccc3ccccc23)c1 (stereo not drawn)			0.11	

SMILES	IC50 [1] [µM]	IC50 [2] [µM]	EC50 [3] [µM]	also measured
Cn1cncc1C(OCc1ccc(C#N)c(NCC2CCOC2)n1)c1ccc(C#N)c(-c2ccccc2C(F)(F)F)c1 (stereo not drawn)	0.0077	2.2	0.201	
Cc1ccccc1-c1cc(C(OCc2ccc3ccccc3c2)c2cncn2C)ccc1C#N (stereo not drawn)				inhibition [5]: 76%
Cn1cncc1C(OCc1ccc(C#N)c(NCCc2ccccc2)n1)c1ccc(C#N)c(-c2ccccc2C(F)(F)F)c1 (stereo not drawn)	0.0091	2.3	> 1	
COC(=O)c1ccc(COC(c2ccc(C#N)c(-c3ccccc3C)c2)c2cncn2C)cc1 (stereo not drawn)	0.0061			
Cn1cncc1C(OCc1ccc(C#N)c(NCC2CCCO2)n1)c1ccc(C#N)c(-c2ccccc2C(F)(F)F)c1 (stereo not drawn)	0.0075	2.4	0.285	IC50 [6]: 0.0011 µM
Cc1ccccc1-c1cc(C(OCc2ccccc2Cl)c2cncn2C)ccc1C#N (stereo not drawn)	0.048			
Cc1ccccc1-c1cc(C(OCc2cnc(Cl)c(Cl)c2)c2cncn2C)ccc1C#N (stereo not drawn)	0.015			
Cn1cncc1C(OCc1ccc(C#N)cc1)c1ccc(C#N)c(-c2ccccc2C(=O)O)c1 (stereo not drawn)	0.014		> 1	
Cc1ccccc1-c1cc(C(OCc2cccc(C(F)(F)F)c2)c2cncn2C)ccc1C#N (stereo not drawn)	0.0081			
Cn1cncc1C(OCc1ccc(Cl)c(Cl)c1)c1ccc(C#N)c(-c2ccccc2C(F)(F)F)c1 (stereo not drawn)	0.0017	0.072		
COC(=O)c1cccc(COC(c2ccc(C#N)c(-c3ccccc3C)c2)c2cncn2C)c1 (stereo not drawn)	0.061			
Cc1ccccc1-c1cc(C(OCc2ccc(C(C)(C)C)cc2)c2cncn2C)ccc1C#N (stereo not drawn)	0.087			
Cc1ccccc1-c1cc(C(OCc2cc(Cl)cc(Cl)c2)c2cncn2C)ccc1C#N (stereo not drawn)	0.019			
Cn1cncc1C(OCc1ccc(C#N)c(N2CCC[C@@H]2C(=O)O)n1)c1ccc(C#N)c(-c2ccccc2C(F)(F)F)c1 (stereo partly drawn)	0.0036	0.68	0.21	
Cn1cncc1C(OCc1ccc(C#N)cn1)c1ccc(C#N)c(-c2ccccc2C(F)(F)F)c1 (stereo not drawn)	0.0027	1.5	0.09	
Cc1ccccc1-c1cc(C(OCc2cccc(Cl)c2)c2cncn2C)ccc1C#N (stereo not drawn)	0.019			
COC(=O)c1ccc(COC(c2ccc(C#N)c(-c3ccccc3C)c2)c2cncn2C)o1 (stereo not drawn)				inhibition [5]: 50%
Cc1ccccc1-c1cc(C(OCc2ccc(-c3ccccc3)cc2)c2cncn2C)ccc1C#N (stereo not drawn)	0.013			
Cn1cncc1C(OCc1ccc(F)c(C(F)(F)F)c1)c1ccc(C#N)c(-c2ccccc2C(F)(F)F)c1 (stereo not drawn)	0.0041	0.12	0.1	
Cn1cncc1C(OCc1ccc(C#N)cc1)c1ccc(C#N)c(-c2ccc(Cl)cc2Cl)c1 (stereo not drawn)	0.047		> 1	
Cc1ccccc1-c1cc(C(OCc2ccccc2)c2cncn2C)ccc1C#N (stereo not drawn)	0.084	1.3		Selectivity (Bos taurus): 16; EC50 [7]: 2.7 µM
Cc1ccccc1-c1cc(C(OCc2noc(-c3ccccc3)n2)c2cncn2C)ccc1C#N (stereo not drawn)				inhibition [5]: 56%
Cn1cncc1C(OCc1ccc(C#N)cc1)c1ccc(C#N)c(-c2ccccc2C=O)c1 (stereo not drawn)	0.0019		0.11	
